Laboratory results reported in article PMC8161485 (ACS Central Science, 2021).
Entries after “also recorded” stand apart in the source; their conditions may differ.

Test system: heme oxygenase 1 (HO-1)
Test: Induction of heme oxygenase 1 in primary AML specimens
Assay type: cell-based, human
Conditions: compared to vehicle-only control

C=C1C(=O)O[C@H]2[C@H]1CC/C(C)=C/CC[C@@]1(C)O[C@@H]21 [PTL, parthenolide]
induction of heme oxygenase 1 (HO-1): Dose-dependent induction; also recorded: comparatively larger induction of HO-1 at lower doses
